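Each compound was tested at five concentrations against cells in 96-well plates for 48 hours. At the TGI there is no net growth.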
Legend:
Experiment in all cases: NCI anticancer screen, dose series, 48 h
[1] = test system: CAKI-1 renal
[2] = test system: HOP-62 NSCLC
[3] = test system: HOP-92 NSCLC
[4] = test system: HS 578T breast
[5] = test system: M14 melanoma
[6] = test system: MDA-MB-231 breast
[7] = test system: NCI-H522 lung
[8] = test system: OVCAR-8 ovarian
[9] = test system: SF-295 CNS
[10] = test system: SF-539 CNS
[11] = test system: SK-OV-3 ovarian
[12] = test system: SR leukemia
[13] = test system: UACC-62 melanoma

Cc1nc(-c2ccccc2)cn2c1nc1ccccc12
TGI [1]: 62.1 µM
TGI [2]: 49.6 µM
TGI [3]: 62.6 µM
TGI [4]: > 87.5 µM
TGI [5]: > 82.8 µM
TGI [6]: > 100 µM
TGI [7]: > 66.8 µM
TGI [8]: 37.3 µM
TGI [9]: > 65.8 µM
TGI [10]: 53 µM
TGI [11]: 26 µM
TGI [12]: > 100 µM
TGI [13]: 31.7 µM

CCCCCCN(CCCCCC)CCC(=O)c1ccc2cc(Br)c3ccccc3c2c1
TGI [1]: > 100 µM
TGI [2]: > 100 µM
TGI [3]: 64.9 µM
TGI [4]: > 100 µM
TGI [5]: > 100 µM
TGI [6]: 67.4 µM
TGI [7]: 87.1 µM
TGI [8]: > 100 µM
TGI [9]: > 100 µM
TGI [10]: 52.5 µM
TGI [11]: > 100 µM
TGI [12]: 14.3 µM
TGI [13]: 74.5 µM

COC(=O)C(CNC(=O)/C=C/c1ccc(OC)c(OC)c1)NC(=O)/C=C/c1ccc(OC)c(OC)c1 (stereo not drawn)
TGI [1]: > 100 µM
TGI [2]: > 100 µM
TGI [3]: > 100 µM
TGI [4]: > 100 µM
TGI [5]: > 100 µM
TGI [6]: > 100 µM
TGI [7]: > 100 µM
TGI [8]: > 100 µM
TGI [9]: > 100 µM
TGI [10]: > 100 µM
TGI [11]: > 100 µM
TGI [12]: > 100 µM
TGI [13]: > 100 µM

CC(C)C1CSC2N1C(=O)C2(OCc1ccccc1)C1CC1 (stereo not drawn)
TGI [1]: > 100 µM
TGI [2]: > 100 µM
TGI [3]: > 100 µM
TGI [4]: > 100 µM
TGI [5]: > 100 µM
TGI [6]: > 100 µM
TGI [7]: > 100 µM
TGI [8]: > 100 µM
TGI [9]: > 100 µM
TGI [10]: > 100 µM
TGI [11]: > 100 µM
TGI [12]: > 100 µM
TGI [13]: > 100 µM

C#C[C@]1(O)CC[C@H]2[C@@H]3CCC4=C/C(=N\OCCN5CCCCC5)CC[C@]4(C)[C@H]3CC[C@@]21C
TGI [1]: 20.5 µM
TGI [2]: 24.4 µM
TGI [3]: 50.8 µM
TGI [4]: 8.86 µM
TGI [5]: 10.2 µM
TGI [6]: 29 µM
TGI [7]: 6.08 µM
TGI [8]: 21.2 µM
TGI [9]: 10.6 µM
TGI [10]: 15.5 µM
TGI [11]: 31.2 µM
TGI [12]: 5.17 µM
TGI [13]: 10.7 µM

CC(C)(C)c1cc(/C=C(\C#N)C2=NCCO2)cc(C(C)(C)C)c1O
TGI [1]: > 35.5 µM
TGI [2]: > 38.9 µM
TGI [3]: 15.2 µM
TGI [4]: 34.1 µM
TGI [5]: 17 µM
TGI [6]: 12.4 µM
TGI [7]: 9.06 µM
TGI [8]: 19.6 µM
TGI [9]: 9.8 µM
TGI [10]: 12.2 µM
TGI [11]: > 32.9 µM
TGI [12]: 8.91 µM
TGI [13]: 17.1 µM

O=S(=O)(O)c1ccc(N=Nc2ccccc2)cc1
TGI [1]: > 100 µM
TGI [2]: > 100 µM
TGI [3]: > 100 µM
TGI [4]: > 100 µM
TGI [5]: > 100 µM
TGI [6]: > 100 µM
TGI [7]: > 100 µM
TGI [8]: > 100 µM
TGI [9]: > 100 µM
TGI [10]: > 100 µM
TGI [11]: > 100 µM
TGI [12]: > 100 µM
TGI [13]: > 100 µM

Nn1c(CCCCCCCCc2nnc(-c3c(O)ccc4ccccc34)n2N)nnc1-c1c(O)ccc2ccccc12
TGI [1]: > 100 µM
TGI [2]: > 100 µM
TGI [3]: > 100 µM
TGI [4]: > 100 µM
TGI [5]: > 100 µM
TGI [6]: > 100 µM
TGI [7]: > 100 µM
TGI [8]: > 100 µM
TGI [9]: > 100 µM
TGI [10]: > 100 µM
TGI [11]: > 100 µM
TGI [12]: > 100 µM
TGI [13]: > 100 µM

O=c1[nH]c(Nc2ccc(Br)c(C(F)(F)F)c2)nc2nc[nH]c12
TGI [1]: > 100 µM
TGI [2]: > 100 µM
TGI [3]: > 100 µM
TGI [4]: 45.6 µM
TGI [5]: > 100 µM
TGI [6]: > 100 µM
TGI [7]: 63.5 µM
TGI [8]: > 100 µM
TGI [9]: > 100 µM
TGI [10]: > 100 µM
TGI [11]: > 100 µM
TGI [12]: > 100 µM
TGI [13]: 61.6 µM

CC(NC1=NCCO1)c1ccccc1Cl (stereo not drawn)
TGI [1]: > 100 µM
TGI [2]: > 100 µM
TGI [3]: 73 µM
TGI [4]: > 100 µM
TGI [5]: > 100 µM
TGI [6]: > 100 µM
TGI [7]: > 100 µM
TGI [8]: > 100 µM
TGI [9]: > 100 µM
TGI [10]: > 100 µM
TGI [11]: > 100 µM
TGI [12]: > 100 µM
TGI [13]: > 100 µM

COC(=O)[C@H](Cc1ccccc1)NC(=O)c1ccc(CNC(=O)/C=C/c2ccc(OCc3ccccc3)cc2)cc1
TGI [1]: 26 µM
TGI [2]: 26.3 µM
TGI [3]: 9.43 µM
TGI [4]: 21.1 µM
TGI [5]: 7.38 µM
TGI [6]: 47 µM
TGI [7]: > 100 µM
TGI [8]: 36.4 µM
TGI [9]: 35.7 µM
TGI [10]: 51.9 µM
TGI [11]: 59.9 µM
TGI [12]: > 100 µM
TGI [13]: 18.6 µM

COc1ccc(S(=O)(=O)Nc2ccc(-c3csc(N4C(=O)/C(=C/c5ccccc5[N+](=O)[O-])N=C4c4ccccc4)n3)cc2)cc1Cl
TGI [1]: > 100 µM
TGI [2]: > 100 µM
TGI [3]: 87.5 µM
TGI [4]: > 100 µM
TGI [5]: > 100 µM
TGI [6]: 78.5 µM
TGI [7]: > 100 µM
TGI [8]: > 100 µM
TGI [9]: > 100 µM
TGI [10]: > 100 µM
TGI [11]: > 100 µM
TGI [12]: > 100 µM
TGI [13]: > 100 µM

NS(=O)(=O)c1ccc(NC(=O)N/N=C/c2ccccc2[N+](=O)[O-])cc1
TGI [1]: > 100 µM
TGI [2]: > 100 µM
TGI [3]: > 100 µM
TGI [4]: > 100 µM
TGI [5]: 85.3 µM
TGI [6]: > 100 µM
TGI [7]: > 100 µM
TGI [8]: > 100 µM
TGI [9]: > 100 µM
TGI [10]: > 100 µM
TGI [11]: > 100 µM
TGI [12]: > 100 µM
TGI [13]: > 100 µM

Cc1ccc(S(=O)(=O)n2cc(C=O)c(-c3cn(S(=O)(=O)c4ccc(C)cc4)cc3-c3cn(S(=O)(=O)c4ccc(C)cc4)cc3C=O)c2)cc1
TGI [1]: > 100 µM
TGI [2]: > 100 µM
TGI [3]: > 100 µM
TGI [4]: > 100 µM
TGI [5]: > 100 µM
TGI [6]: > 100 µM
TGI [7]: > 100 µM
TGI [8]: > 100 µM
TGI [9]: > 100 µM
TGI [10]: 76.4 µM
TGI [11]: > 100 µM
TGI [12]: > 100 µM
TGI [13]: > 100 µM

C=C1C(C(=O)OC)[C@H]1C(=O)OC (stereo partly drawn)
TGI [1]: > 100 µM
TGI [2]: > 100 µM
TGI [3]: > 100 µM
TGI [4]: > 100 µM
TGI [5]: > 100 µM
TGI [6]: > 100 µM
TGI [7]: > 100 µM
TGI [8]: > 100 µM
TGI [9]: > 100 µM
TGI [10]: > 100 µM
TGI [11]: > 100 µM
TGI [12]: > 100 µM
TGI [13]: > 100 µM

COc1ccc(/C=C2\N=C(N3CCCC(CO)C3)NC2=O)cc1 (stereo not drawn)
TGI [1]: > 100 µM
TGI [2]: > 100 µM
TGI [3]: > 100 µM
TGI [4]: > 100 µM
TGI [5]: > 100 µM
TGI [6]: > 100 µM
TGI [7]: > 100 µM
TGI [8]: > 100 µM
TGI [9]: > 100 µM
TGI [10]: > 100 µM
TGI [11]: > 100 µM
TGI [12]: > 100 µM
TGI [13]: > 100 µM

From PubChem BioAssay (NCI)
